How the values were obtained:
rat remnant kidney model [1] = assay: Rat remnant kidney model of nephropathy (renal mass reduction, RMR); format: in vivo; conditions: for serum creatinine / urine protein: 1 and 2 months of treatment, Compound 1 10 and 30 mg/kg/d, FIG. 1; for serum creatinine / urine protein / percentage of sclerotic glomeruli: combination enalapril + Compound 1 30 mg/kg/d; for number of ED 1 positive cells per field (monocytes/macrophages in renal interstitium): termination, vehicle 63±4; for percentage of sclerotic glomeruli: renal histology at termination, Compound 1 10 or 30 mg/kg/d, enalapril, FIG. 2
Description: The rat remnant kidney model is an animal model of severe progressive renal failure. In this model, a state of severe progressive renal failure is produced by renal mass reduction (RMR) through removal of one kidney and ligation of several branches of the renal artery, resulting in infarction and loss of function of two thirds of the remaining kidney. The procedure creates the conditions of severe hypertension, proteinuria, progressive renal function deterioration, tubulointerstitial damage and glomerulosclerosis (Olson J L, Hostetter T H, Rennke H G, Brenner B M, Venkatachalam M A: “Altered glomerular permselectivity and progressive sclerosis following extreme ablation of renal mass”. Kidney Int 22:112-126, 1982).
Nephropathy is evident as a progressively increasing amount of protein in urine, increases in serum creatinine and increases in arterial pressure. In addition, severe sclerosis of the glomeruli, inflammatory cell infiltration and tubular damage are measurable through histological analysis within 3 months of renal mass reduction (RMR). These measures form the basis for determining efficacy in the model. Urine protein, serum creatinine and arterial pressure are similarly measured in humans to determine impact of treatments on disease progression.
The aim of this study was to evaluate the effects of Compound 1 compared to an ACE inhibitor (enalapril), as well as the combination treatment with Compound 1 and enalapril, on proteinuria and renal disease progression in this model. The effectiveness of these agents has been associated with reductions in proteinuria, slowing of the rate of rise in serum creatinine and reduction in glomerular sclerosis and thus slowing of the progression to end stage renal failure.
(§1) Treatments were started 21 days after RMR, when animals already had overt nephropathy. Treatment groups (n=8/group, except enalapril n=7) included vehicle; Compound 1 at 10 mg/kg/d; Compound 1 at 30 mg/kg/d; enalapril at 15 mg/mL (in drinking water); and enalapril at 15 mg/mL+Compound 1 at 30 mg/kg/d. All compounds were administered in drinking water. An additional sham-operated untreated group was also included. Measurements were made at 21 d after RMR but before treatment, and at one and two months of treatment. […] Since the increased mortality was not dose dependent and was not apparent in the group receiving combination treatment with Compound 1 and enalapril (Table 1), the effect is likely due to chance and the known variability in the severity of renal failure in this model.

rat remnant kidney model [2] = assay: Blood pressure in rat remnant kidney model; format: in vivo; conditions: Compound 1 10 and 30 mg/kg/d; enalapril; combination enalapril + Compound 1 30 mg/kg/d; FIG. 3
Method: as §1
Blood pressure reduction can contribute to slowing the progression of renal disease in this animal model as well as in humans.

rat remnant kidney model [3] = assay: Water intake and diuresis in remnant kidney model; format: in vivo; conditions: mean ± S.E.
Method: as §1, with “Treatment groups (n=8/group, except enalapril n=7) included vehicle; Compound 1 at 10 mg/kg/d; Compound 1 at 30 mg/kg/d; enalapril at 15 mg/mL (in drinking water); and enalapril at 15 mg/mL+Compound 1 at 30 mg/kg/d.” left out
(§2) Water intake and diuresis was increased in all treatment groups following RMR (Table 2). […] There were no differences in serum electrolytes in any of the treatment groups at the termination of the experiment (Table 2).

rat remnant kidney model [4] = assay: Serum and urine electrolytes in remnant kidney model; format: in vivo; conditions: for urinary Na excretion: both doses of Compound 1 (10, 30 mg/kg/d), reduced in vehicle treated RMR rats; for urinary Na excretion / urinary Cl excretion / urinary K excretion: enalapril alone, combination; for urinary Cl excretion / urinary K excretion: both doses of Compound 1, reduced in RMR rats vs control
Method: as §1, §2
Urinary Na excretion was reduced in the vehicle treated RMR rats. […] Urinary K and Cl excretion were reduced in rats with RMR compared to control rats.

[5] = test system: streptozotocin-induced diabetic rat; assay: Streptozotocin-induced diabetic rat model of nephropathy; format: in vivo; conditions: for serum albumin concentrations / kidney weight or renal glomerular or mesangial morphology: 30 mg/kg/d; for kidney weight or renal glomerular or mesangial morphology: compared to vehicle treated diabetic rats
Method: The streptozotocin-induced diabetic rat is a model of Type I diabetes that develops early renal dysfunction manifested as increased urine albumin excretion. One week after administration of streptozotocin, 65 mg/kg, i.p., rats were assigned to the following treatment groups: no treatment; Compound 1 at 30 mg/kg/d; or enalapril at 30 mg/kg/d. Both compounds were dosed in drinking water for 12 weeks. Mortality among the treatment groups at 12 weeks was 1/10 in the untreated and Compound 1-treated groups and 3/10 in the enalapril-treated group. As a result of the diabetic state, urine volumes were nearly 10 times that of non-diabetic rats. […] The fraction of filtered sodium and potassium excreted was unaffected by either Compound 1 and enalapril.

Type I diabetic rats = assay: Arterial pressure and heart rate in Type I diabetic rats after seven days oral administration; format: in vivo, rat; conditions: oral administration for seven days
Method: Oral administration of Compound 1 for seven days in Type I diabetic rats had no effect on mean arterial pressure or heart rate over 48 h in diabetic rats. […] Oral administration of enalapril for seven days had no effect on arterial pressure over 48 h in diabetic rat

db/db mice = format: in vivo; conditions: for urinary albumin excretion (in words): 30 mg/kg/d in drinking water for 16 weeks; for mesangial surface area or percentage of glomerular area occupied by mesangium / urine osmolarity: 30 mg/kg/d; for mesangial surface area or percentage of glomerular area occupied by mesangium: compared to vehicle-treated animals; for urine osmolarity: throughout 16 weeks of dosing
Method: Male db/db mice, a genetic model of type 2 diabetes, develop early renal dysfunction manifested as increased urine albumin excretion. At 9 weeks of age diabetes was confirmed by measurement of blood glucose (>300 mg/dL) and animals assigned to one of three treatment groups (n=12/group): untreated, Compound 1, 30 mg/kg/d and enalapril, 30 mg/kg/d. Compounds were dosed in drinking water for 16 weeks. There was no mortality in any of the treatment groups. Body weights for animals were similar at the beginning of the study.

[6] = 1 month of treatment, Enalapril 15 mg/L
[7] = 2 month of treatment, Enalapril 15 mg/L
[8] = basal (before RMR and treatment), group Enalapril 15 mg/L
[9] = pre-treatment (21 d after RMR), group Enalapril 15 mg/L
[10] = 30 mg/kg/d in drinking water for 12 weeks
[11] = compared to vehicle treated controls
[12] = 1 month of treatment, Compound 1 10 mg/kg/d
[13] = 1 month of treatment, Compound 1 30 mg/kg/d
[14] = 2 month of treatment, Compound 1 10 mg/kg/d
[15] = 2 month of treatment, Compound 1 30 mg/kg/d
[16] = basal (before RMR and treatment), group Compound 1 10 mg/kg/d
[17] = basal (before RMR and treatment), group Compound 1 30 mg/kg/d
[18] = pre-treatment (21 d after RMR), group Compound 1 10 mg/kg/d
[19] = pre-treatment (21 d after RMR), group Compound 1 30 mg/kg/d

CCOC(=O)[C@H](CCc1ccccc1)N[C@@H](C)C(=O)N1CCC[C@H]1C(=O)O [Enalapril, enalapril, reference compound]
serum creatinine (rat remnant kidney model [1]; enalapril 15 mg/mL): significantly reduced | urine protein (rat remnant kidney model [1]; enalapril 15 mg/mL): significantly reduced | Mortality rate (rat remnant kidney model [1]; 1 month of treatment, enalapril in drinking water, dead/total): 0/7 | Mortality rate (rat remnant kidney model [1]; 2 month of treatment, enalapril in drinking water, dead/total): 1/7 | number of ED 1 positive cells per field (monocytes/macrophages in renal interstitium) (rat remnant kidney model [1]; enalapril 15 mg/mL, statistically significant reduction): 38±6 positive cells per field | percentage of sclerotic glomeruli (rat remnant kidney model [1]): significant reduction | arterial pressure (rat remnant kidney model [2]): significant reductions in arterial pressure compared to vehicle | diuresis (rat remnant kidney model [3]; [6]): 46 ± 4 mL/24 h | water intake (rat remnant kidney model [3]; [6]): 60 ± 4*° mL/24 h | diuresis (rat remnant kidney model [3]; [7]): 45 ± 3 mL/24 h | water intake (rat remnant kidney model [3]; [7]): 59 ± 6 mL/24 h | diuresis (rat remnant kidney model [3]; [8]): 19 ± 1 mL/24 h | water intake (rat remnant kidney model [3]; [8]): 44 ± 4 mL/24 h | diuresis (rat remnant kidney model [3]; [9]): 46 ± 5 mL/24 h | water intake (rat remnant kidney model [3]; [9]): 66 ± 6 mL/24 h | urinary Na excretion (rat remnant kidney model [4]): tended to normalize urinary Na excretion to similar extents | urinary Cl excretion (rat remnant kidney model [4]): tended to normalize urinary K and Cl excretion | urinary K excretion (rat remnant kidney model [4]): tended to normalize urinary K and Cl excretion | urine chloride ion (Cl−) (rat remnant kidney model [4]; compared to vehicle group): significantly greater than those in the vehicle group | fraction of filtered sodium and potassium excreted [5, 10]: unaffected | urine endpoints: daily volume output, osmolarity, chloride, creatinine, sodium or potassium concentrations, clearances or excretion values [5, 10]: not significantly altered | Mortality at 12 weeks ([5]; 30 mg/kg/d in drinking water for 12 weeks, dead/total, untreated 1/10): 3/10 | serum albumin concentrations [5, 11]: not statistically significant, serum albumin concentrations increased | kidney weight or renal glomerular or mesangial morphology [5]: no significant effects | (mean) arterial pressure over 48 h (Type I diabetic rats): no effect | urinary albumin excretion (in words) (db/db mice; FIG. 5): tended to reduce urine albumin excretion with significant differences observed at 2 weeks and 16 weeks compared to vehicle controls | mesangial surface area or percentage of glomerular area occupied by mesangium (db/db mice): No significant differences | urine osmolarity (db/db mice): unaffected by treatment | albumin excretion in urine (db/db mice; enalapril 30 mg/kg/d in drinking water, over 16 weeks, FIG. 5): ≤ 500 ug/24 h

COc1cc(C(=O)N2CC[C@]3(C=C(C(=O)O)CC3)Cc3ccccc32)ccc1NC(=O)c1cc(F)ccc1Cl [Compound 1]
serum creatinine (rat remnant kidney model [1]; enalapril 15 mg/mL): reduced urine protein and serum creatinine when administered alone but not to the same extent as enalapril | urine protein (rat remnant kidney model [1]; enalapril 15 mg/mL): reduced urine protein and serum creatinine when administered alone but not to the same extent as enalapril | number of ED 1 positive cells per field (monocytes/macrophages in renal interstitium) (rat remnant kidney model [1]; Compound 1 10 mg/kg/d, not statistically significant): 48±4 positive cells per field | number of ED 1 positive cells per field (monocytes/macrophages in renal interstitium) (rat remnant kidney model [1]; Compound 1 30 mg/kg/d, not statistically significant): 49±10 positive cells per field | mortality (in words) (rat remnant kidney model [1]; Compound 1 10 and 30 mg/kg/d alone, combination Compound 1 30 mg/kg/d + enalapril, not dose dependent, judged due to chance): apparent excess mortality | Mortality rate (rat remnant kidney model [1]; rat, in vivo, 10 mg/kg/day, 1 month): 2/8 | Mortality rate (rat remnant kidney model [1]; rat, in vivo, 10 mg/kg/day, 2 months): 4/8 | Mortality rate (rat remnant kidney model [1]; rat, in vivo, 30 mg/kg/day, 1 month): 2/8 | Mortality rate (rat remnant kidney model [1]; rat, in vivo, 30 mg/kg/day, 2 months): 3/8 | percentage of sclerotic glomeruli (rat remnant kidney model [1]): tended to decrease the percentage of sclerotic glomeruli compared with vehicle, but this was not statistically significant | arterial pressure (rat remnant kidney model [2]): significant reductions in arterial pressure compared to vehicle | diuresis (rat remnant kidney model [3]; [12]): 47 ± 2 mL/24 h | water intake (rat remnant kidney model [3]; [12]): 53 ± 9° mL/24 h | diuresis (rat remnant kidney model [3]; [13]): 41 ± 4 mL/24 h | water intake (rat remnant kidney model [3]; [13]): 60 ± 7 mL/24 h | diuresis (rat remnant kidney model [3]; [14]): 43 ± 5 mL/24 h | water intake (rat remnant kidney model [3]; [14]): 62 ± 6 mL/24 h | diuresis (rat remnant kidney model [3]; [15]): 49 ± 8 mL/24 h | water intake (rat remnant kidney model [3]; [15]): 60 ± 16 mL/24 h | diuresis (rat remnant kidney model [3]; [16]): 19 ± 1 mL/24 h | water intake (rat remnant kidney model [3]; [16]): 43 ± 5 mL/24 h | diuresis (rat remnant kidney model [3]; [17]): 19 ± 1 mL/24 h | water intake (rat remnant kidney model [3]; [17]): 47 ± 3 mL/24 h | diuresis (rat remnant kidney model [3]; [18]): 44 ± 3 mL/24 h | water intake (rat remnant kidney model [3]; [18]): 66 ± 5 mL/24 h | diuresis (rat remnant kidney model [3]; [19]): 55 ± 4 mL/24 h | water intake (rat remnant kidney model [3]; [19]): 76 ± 6 mL/24 h | urinary Na excretion (rat remnant kidney model [4]): tended to normalize urinary Na excretion to similar extents | urinary Cl excretion (rat remnant kidney model [4]): tended to normalize urinary K and Cl excretion | urinary K excretion (rat remnant kidney model [4]): tended to normalize urinary K and Cl excretion | fraction of filtered sodium and potassium excreted [5, 10]: unaffected | urine endpoints: daily volume output, osmolarity, chloride, creatinine, sodium or potassium concentrations, clearances or excretion values [5, 10]: not significantly altered | urine albumin excretion ([5]; 30 mg/kg/d in drinking water, compared to vehicle treated controls, FIG. 4): significant decrease | serum albumin concentrations [5, 11]: not statistically significant, serum albumin concentrations increased | kidney weight or renal glomerular or mesangial morphology [5]: no significant effects | urine free water clearance ([5]; Compound 1 30 mg/kg/d): trend toward increased urine free water clearance | serum osmolarity ([5]; Compound 1 30 mg/kg/d, compared to vehicle treated controls): decreased significantly | (mean) arterial pressure over 48 h (Type I diabetic rats): no effect | heart rate over 48 h (Type I diabetic rats): no effect | urinary albumin excretion (in words) (db/db mice; FIG. 5): unaffected | mesangial surface area or percentage of glomerular area occupied by mesangium (db/db mice): No significant differences | urine osmolarity (db/db mice): unaffected by treatment
